These results are taken from paper PMC5865165, “Mechanism of action of the third generation benzopyrans and evaluation of their broad anti-cancer activity in vitro and in vivo” (Scientific Reports, 2018).

A word on the IC50: it is the point on the concentration scale where inhibition reaches its midpoint.

What all share (experiment): cells
Parameters in all cases: species or system melanoma cell lines (3D spheres); 3D melanoma tumour sphere viability, CellTiter-Glo 3D luminescence, 7-point dose response
A general note: Cellular ATP, detected with luciferase, serves as a proxy for viable cell number.

One assay deals with MM96L. As to conditions: Homo sapiens, MM96L; 3D tumour spheres, 72 h. The procedure: (§1) Dose responses to TRX-E-009-1 and TRX-E-002-1 were performed using 3D tumour sphere cultures of 21 melanoma cell lines. Cells were dissociated and seeded[17] at previously optimized densities into 384-well Ultra-Low Attachment plates (#3827, Corning). Cells were treated the following day with a 7 point 3-fold dilution series, 5.4 µM to 7.4 nM using a Sciclone ALH 3000 [compound left out] handling robot. Changes in cell viability were assayed at 72 hours using the Cell Titre Glo 3D assay (#G9683, Promega), luminescence reads were performed on a SynergyMx Plate Reader (BioTek Instruments). Luminescence values were normalized to the DMSO/vehicle control prior to comparisons. […] A second independent panel of melanoma cell lines grown as tumour spheres was assessed for sensitivity to both TRX-E-009-1 and TRX-E-002-1. […] As found with the Oncopanel melanoma cell lines, a subset (one third) of the cell lines were sensitive to killing by these BP compounds, with <20% viability at the highest concentration tested. These lines will be referred to as sensitive. The cell lines with >25% viability at the highest dose appear comparatively resistant to killing by the compounds and are referred to as resistant. Subsequent experiments utilized A2058, D04, SKMEL13, and A375 as representative of sensitive cell lines, while A15, SKMEL28, C013, and C002 were used to assess the effects of TRX-E-009-1 and TRX-E-002-1 on resistant lines.

The next assay relates to A375. As to conditions: Homo sapiens, A-375; 3D tumour spheres, 72 h. On the procedure: as §1
The test system of another assay is A15. Particulars: 3D tumour spheres, 72 h. The procedure:
as §1

A further assay has as its system MM603. As to conditions: 3D tumour spheres, 72 h. The procedure:
as §1

A further assay relates to C052. Particulars: 3D tumour spheres, 72 h. On the procedure: as §1
In the next assay the test system is C013. Particulars: 3D tumour spheres, 72 h. On the procedure:
as §1

A further assay has as its system D20. As to conditions: 3D tumour spheres, 72 h. On the procedure:
as §1

The next assay relates to A2058. As to conditions: Homo sapiens, A2058; 3D tumour spheres, 72 h. On the procedure:
as §1

A further assay has as its system C002. As to conditions: 3D tumour spheres, 72 h. On the procedure: as §1
The subject of a further assay is HT144. As to conditions: Homo sapiens, HT-144; 3D tumour spheres, 72 h. The procedure:
as §1

Another assay has as its system D25. As to conditions: 3D tumour spheres, 72 h. On the procedure:
as §1

A further assay has as its system D28. As to conditions: 3D tumour spheres, 72 h. On the procedure:
as §1

Another assay deals with C054. As to conditions: 3D tumour spheres, 72 h. The procedure:
as §1

Another assay concerns SKMEL13. Particulars: 3D tumour spheres, 72 h. The procedure:
as §1

The test system of a further assay is MM370. As to conditions: 3D tumour spheres, 72 h. The procedure: as §1
For the next assay, the system named is BL. As to conditions: 3D tumour spheres, 72 h. The procedure: as §1
Another assay concerns C045. As to conditions: 3D tumour spheres, 72 h. The procedure:
as §1

Another assay concerns SKMEL28. As to conditions: Homo sapiens, SK-MEL-28; 3D tumour spheres, 72 h. The procedure:
as §1

Another assay relates to MM329. As to conditions: 3D tumour spheres, 72 h. On the procedure: as §1
Another assay relates to D04. As to conditions: 3D tumour spheres, 72 h. On the procedure:
as §1

The test system of a further assay is MM415. As to conditions: 3D tumour spheres, 72 h. The procedure:
as §1

Regarding `COc1cc([C@@H]2COc3c(ccc(O)c3C)[C@@H]2c2ccc(O)c(F)c2)cc(OC)c1O` (racemic) [TRX-E-009-1], the IC50 came to 281 nM with MM96L; 321 nM in the assay with A375; 489 nM in the assay with A15; 284 nM in the assay with MM603; 292 nM in the assay on C052; 318 nM in the assay with C013. The IC50 was 1110 nM in the assay with D20; 292 nM with A2058; 977 nM in the assay with C002; 233 nM with HT144; 5020 nM in the assay with D25; 787 nM in the assay on D28. Besides, the IC50 in the assay on C054 is 857 nM; in the assay with SKMEL13, 244 nM; in the assay on MM370 it was 290 nM; in the assay with BL, 340 nM; in the assay on C045, 461 nM; with SKMEL28, 4580 nM. Also, the figures for the IC50 in the assay with MM329, with D04 and in the assay on MM415 were 178 nM, 253 nM and 323 nM, respectively.
